# Test results from ChEMBL document CHEMBL1146922, “A novel ketone derivative of artemisinin biotransformed by Streptomyces griseus ATCC 13273” (Bioorg Med Chem Lett, 2006).
# Test system: Plasmodium falciparum; call rule not given here
# Experiment: Antimicrobial activity against Plasmodium falciparum FCC1/HN
# Type: functional, organism-based
# [1] = Plasmodium falciparum, FCC1/HN, read-out: IC50
IC50,Structure (SMILES),IC50 [1] [µg/mL]
,C[C@@H]1[C@@H](O)C[C@H]2[C@@H](C)C(=O)O[C@@H]3O[C@]4(C)CC[C@@H]1C32OO4,0.0293
,C[C@@H]1[C@H](O)C[C@H]2[C@@H](C)C(=O)O[C@@H]3O[C@]4(C)CC[C@@H]1C32OO4,0.0346
,C[C@@H]1C(=O)C[C@H]2[C@@H](C)C(=O)O[C@@H]3O[C@]4(C)CC[C@@H]1C32OO4,0.0257
Not Active,C[C@@H]1CC[C@H]2[C@@H](C)C(=O)O[C@@H]3O[C@@]4(C)OC32[C@H]1C[C@H]4O,
,C[C@@H]1CC[C@H]2[C@@H](C)C(=O)O[C@@H]3O[C@@]4(C)CC[C@@H]1[C@]32OO4 [ARTEMISININ],0.0031
